Data published in ChEMBL document CHEMBL1201862, “PubChem BioAssay data set” (2004).
The source made the active and inactive calls.

Assays:
[1] = molecular target: Transitional endoplasmic reticulum ATPase (Homo sapiens, UniProt P55072); assay: p97 ATPase inhibitors, dose response, biochemical (AID 1534)
[2] = molecular target: Transitional endoplasmic reticulum ATPase (Homo sapiens, UniProt P55072, C522A); assay: C522A mutant p97 ATPase inhibitors, dose response, counter-screen for p97 inhibitor project, biochemical, luminescence (AID 1544)
Transitional endoplasmic reticulum ATPase (Homo sapiens, UniProt P55072, C522A), sequence (P55072 2-806 C522A limits assumed): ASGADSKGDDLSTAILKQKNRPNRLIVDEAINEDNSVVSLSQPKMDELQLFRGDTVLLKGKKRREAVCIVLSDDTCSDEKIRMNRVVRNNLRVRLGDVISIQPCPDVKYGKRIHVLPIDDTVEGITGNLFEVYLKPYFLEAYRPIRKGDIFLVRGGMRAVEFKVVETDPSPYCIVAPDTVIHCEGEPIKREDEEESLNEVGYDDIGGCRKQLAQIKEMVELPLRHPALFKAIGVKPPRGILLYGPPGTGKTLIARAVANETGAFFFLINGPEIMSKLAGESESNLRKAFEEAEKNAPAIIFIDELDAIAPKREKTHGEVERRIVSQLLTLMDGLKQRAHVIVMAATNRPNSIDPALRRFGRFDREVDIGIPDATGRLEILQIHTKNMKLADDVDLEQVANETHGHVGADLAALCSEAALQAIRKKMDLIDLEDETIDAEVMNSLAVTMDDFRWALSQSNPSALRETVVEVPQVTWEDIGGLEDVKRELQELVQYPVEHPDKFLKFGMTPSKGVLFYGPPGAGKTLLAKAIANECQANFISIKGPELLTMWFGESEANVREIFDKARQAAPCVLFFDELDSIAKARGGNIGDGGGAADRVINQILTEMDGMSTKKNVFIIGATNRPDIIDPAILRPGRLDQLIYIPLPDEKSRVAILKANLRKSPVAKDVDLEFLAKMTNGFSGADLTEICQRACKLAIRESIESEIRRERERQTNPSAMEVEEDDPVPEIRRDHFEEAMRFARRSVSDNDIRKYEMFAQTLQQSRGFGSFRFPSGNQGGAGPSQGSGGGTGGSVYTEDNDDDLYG

[3] = growth suppression of PTEN-null colon cells, dose response, cell-based, HCT116 PTEN knockout (AID 1047); assay type: functional;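 also: HCT116 colon tumor cells with PTEN knocked out; cells exposed to compound for 60 hours before readout; potency for loss of cell viability measured by luminescence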
[4] = Luminescence Cell-Based Dose Retest to Confirm Inhibitors of Cancer Stem Cells. [Related pubchem assays (depositor defined):AID2717, AID2721]; assay type: functional; details: Homo sapiens
[5] = growth suppression of beta-catenin-knockout colon cells, dose response, cell-based, HCT116, human colon tumor (AID 1045); assay type: functional;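 also: HCT116 colon tumor cells with beta catenin knocked out; cells exposed to compound for 60 hours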
[6] = microbe, parasite or virus in culture; assay type: functional; details: Mycobacterium tuberculosis
[7] = molecular target: Neurotensin receptor type 1 (Homo sapiens, UniProt P30989); assay type: functional;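 also: Image-based confirmatory dose-response assay measuring agonist activity at NTR1; NTR1-expressing U2OS osteosarcoma cells imaged for beta-arrestin GFP spot formation; agonist potency where compounds increase beta-arrestin recruitment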
Neurotensin receptor type 1, sequence (P30989 whole entry): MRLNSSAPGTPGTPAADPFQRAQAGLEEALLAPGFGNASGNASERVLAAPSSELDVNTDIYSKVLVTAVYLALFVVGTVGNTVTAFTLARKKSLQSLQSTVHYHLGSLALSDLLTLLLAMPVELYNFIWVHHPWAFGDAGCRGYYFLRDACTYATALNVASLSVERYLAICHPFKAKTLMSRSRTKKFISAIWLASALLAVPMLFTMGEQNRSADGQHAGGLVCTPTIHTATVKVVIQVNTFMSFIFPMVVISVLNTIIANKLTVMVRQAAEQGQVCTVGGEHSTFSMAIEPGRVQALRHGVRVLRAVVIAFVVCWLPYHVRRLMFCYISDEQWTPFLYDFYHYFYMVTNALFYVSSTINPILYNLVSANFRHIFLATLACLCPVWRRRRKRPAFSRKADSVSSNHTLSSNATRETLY

[8] = molecular target: T1, Eukaryotic translation initiation factor 2-alpha kinase 3 (Homo sapiens, UniProt Q9NZJ5); assay: Counterscreen assay for PERK inhibitors: Dose response cell-based high throughput screening assay to measure inhibition of PERK at 6 hours. [Related pubchem assays: 1522, 1416 ]; assay type: functional
T1 sequence (Q9NZJ5 whole entry): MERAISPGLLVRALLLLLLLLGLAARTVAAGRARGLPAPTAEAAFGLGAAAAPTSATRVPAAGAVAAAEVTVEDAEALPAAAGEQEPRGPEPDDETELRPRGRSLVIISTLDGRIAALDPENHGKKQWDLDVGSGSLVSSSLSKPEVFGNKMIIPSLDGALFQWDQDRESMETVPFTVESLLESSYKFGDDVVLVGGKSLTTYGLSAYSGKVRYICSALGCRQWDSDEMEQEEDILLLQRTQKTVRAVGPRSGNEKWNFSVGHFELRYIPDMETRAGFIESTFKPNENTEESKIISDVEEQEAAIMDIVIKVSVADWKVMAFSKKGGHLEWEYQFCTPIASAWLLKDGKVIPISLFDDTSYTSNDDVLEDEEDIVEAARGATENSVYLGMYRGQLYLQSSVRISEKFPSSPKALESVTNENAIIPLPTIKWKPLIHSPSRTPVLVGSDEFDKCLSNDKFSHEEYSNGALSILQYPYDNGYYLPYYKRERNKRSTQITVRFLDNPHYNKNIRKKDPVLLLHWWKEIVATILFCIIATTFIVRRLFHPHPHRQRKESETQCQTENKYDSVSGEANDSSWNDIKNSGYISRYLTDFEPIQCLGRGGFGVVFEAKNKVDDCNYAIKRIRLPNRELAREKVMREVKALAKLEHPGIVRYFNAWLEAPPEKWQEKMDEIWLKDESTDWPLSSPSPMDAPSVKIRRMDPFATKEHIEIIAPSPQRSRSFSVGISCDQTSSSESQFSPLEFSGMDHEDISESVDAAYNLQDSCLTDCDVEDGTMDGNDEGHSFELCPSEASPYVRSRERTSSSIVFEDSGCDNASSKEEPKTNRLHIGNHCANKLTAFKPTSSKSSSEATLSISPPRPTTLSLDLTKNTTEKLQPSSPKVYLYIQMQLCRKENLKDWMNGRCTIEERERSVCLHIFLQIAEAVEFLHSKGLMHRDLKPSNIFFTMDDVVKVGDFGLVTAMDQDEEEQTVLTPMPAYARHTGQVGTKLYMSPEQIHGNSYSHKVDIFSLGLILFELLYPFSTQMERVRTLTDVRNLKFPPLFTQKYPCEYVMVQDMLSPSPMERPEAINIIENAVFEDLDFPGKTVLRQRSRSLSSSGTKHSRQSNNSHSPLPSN

[9] = molecular target: T1, Eukaryotic translation initiation factor 2-alpha kinase 3; assay: Dose response cell-based high-throughput screening assay to measure PERK inhibition. [Related pubchem assays: 1416 ]; assay type: functional
Staphylococcus aureus = assay: Inhibitors of Bacterial Quorum Sensing Structure Activity Relationship (SAR) Analysis: Dose Response Assay. [Related pubchem assays: 700, 527 ]; assay type: functional, organism-based
Beta-galactosidase = Beta-galactosidase (Escherichia coli, UniProt Q8VNN2); assay: beta-galactosidase enzyme inhibitors and activators, dose response, artefact control for CCR6 antagonist project, biochemical, E. coli enzyme, set 3 (AID 504712); assay type: functional
[10] = molecular target: Induced myeloid leukemia cell differentiation protein Mcl-1 (Homo sapiens, UniProt Q07820); assay type: functional
Perilipin-1/ABHD5 = Perilipin-1/ABHD5 (Homo sapiens, UniProt O60240+Q8WTS1); assay: Luminescence-based biochemical high throughput dose response assay for inhibitors of the interaction of the lipase co-activator protein, abhydrolase domain containing 5 (ABHD5) with perilipin-1 (PLIN1) (2K validation set). [Related pubchem assays (depositor defined):AID493027, AID493057]
Perilipin-1/ABHD5, sequence (Q8WTS1 whole entry, the tested form may be a part): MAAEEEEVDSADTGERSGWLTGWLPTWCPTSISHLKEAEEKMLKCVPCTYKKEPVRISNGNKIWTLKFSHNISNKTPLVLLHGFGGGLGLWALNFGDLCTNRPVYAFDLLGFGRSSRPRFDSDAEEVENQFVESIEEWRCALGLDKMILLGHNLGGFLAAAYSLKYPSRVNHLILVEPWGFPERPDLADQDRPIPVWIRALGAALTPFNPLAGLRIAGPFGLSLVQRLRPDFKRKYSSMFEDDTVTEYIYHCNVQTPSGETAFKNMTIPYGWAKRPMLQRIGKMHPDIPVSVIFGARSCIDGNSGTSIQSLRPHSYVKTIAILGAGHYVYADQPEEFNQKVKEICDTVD
Perilipin-1/ABHD5, sequence (O60240 whole entry, the tested form may be a part): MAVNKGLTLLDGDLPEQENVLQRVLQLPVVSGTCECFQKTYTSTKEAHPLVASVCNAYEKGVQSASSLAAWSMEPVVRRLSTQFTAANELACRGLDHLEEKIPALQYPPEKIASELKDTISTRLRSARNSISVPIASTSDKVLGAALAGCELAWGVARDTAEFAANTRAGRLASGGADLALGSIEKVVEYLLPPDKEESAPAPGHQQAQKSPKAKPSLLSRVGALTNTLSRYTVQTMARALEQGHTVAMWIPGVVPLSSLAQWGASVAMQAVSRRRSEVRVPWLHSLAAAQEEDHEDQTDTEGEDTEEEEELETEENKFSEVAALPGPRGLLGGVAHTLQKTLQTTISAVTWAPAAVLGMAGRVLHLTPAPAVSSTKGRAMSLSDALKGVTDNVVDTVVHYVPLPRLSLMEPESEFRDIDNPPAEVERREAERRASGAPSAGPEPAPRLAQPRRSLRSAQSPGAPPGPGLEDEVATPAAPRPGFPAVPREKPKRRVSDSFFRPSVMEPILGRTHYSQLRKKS

Hexokinase HKDC1 = Hexokinase HKDC1 (Homo sapiens, UniProt Q2TB90); assay: HKDC1 hexokinase inhibitors, dose response, biochemical, W721R variant (AID 504729); assay type: functional
[11] = molecular target: 1-acylglycerol-3-phosphate O-acyltransferase ABHD5/Perilipin-5 (Homo sapiens, UniProt Q00G26+Q8WTS1); assay: Luminescence-based biochemical high throughput dose response assay for inhibitors of the interaction of the lipase co-activator protein, abhydrolase domain containing 5 (ABHD5) with perilipin-5 (MLDP; PLIN5) (2K validation set). [Related pubchem assays (depositor defined):AID493035, AID493241]
[12] = molecular target: DNA dC->dU-editing enzyme APOBEC-3G (Homo sapiens, UniProt Q9HC16); assay: Dose Response confirmation of small molecule APOBEC3G DNA Deaminase Inhibitors via a fluorescence-based single-stranded DNA deaminase assay. [Related pubchem assays (depositor defined):AID493012, AID493028]; assay type: functional
[13] = molecular target: T2, RNA-binding protein pos-1 (Caenorhabditis elegans, UniProt G5EF15); assay: inhibitors of POS-1/mex-3 RNA binding, dose response, biochemical, fluorescence polarization (AID 1964);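 also: purified POS-1 fused to maltose binding protein made in E. coli; potency of compounds blocking POS-1 binding to fluorescent RNA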
T2 sequence (G5EF15 whole entry): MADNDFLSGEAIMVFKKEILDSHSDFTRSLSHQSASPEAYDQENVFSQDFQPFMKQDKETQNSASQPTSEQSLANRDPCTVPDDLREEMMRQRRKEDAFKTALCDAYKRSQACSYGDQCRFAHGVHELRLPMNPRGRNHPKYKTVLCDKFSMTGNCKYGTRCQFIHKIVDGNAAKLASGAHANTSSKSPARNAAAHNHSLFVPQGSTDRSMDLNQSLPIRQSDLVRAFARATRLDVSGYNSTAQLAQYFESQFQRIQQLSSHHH

[14] = molecular target: T3, Zinc finger protein mex-5 (Caenorhabditis elegans, UniProt Q9XUB2); assay: MEX-5/TCR-2 RNA interaction inhibitors, dose response, biochemical, C. elegans, fluorescence polarization (AID 1960)
T3 sequence (Q9XUB2 whole entry): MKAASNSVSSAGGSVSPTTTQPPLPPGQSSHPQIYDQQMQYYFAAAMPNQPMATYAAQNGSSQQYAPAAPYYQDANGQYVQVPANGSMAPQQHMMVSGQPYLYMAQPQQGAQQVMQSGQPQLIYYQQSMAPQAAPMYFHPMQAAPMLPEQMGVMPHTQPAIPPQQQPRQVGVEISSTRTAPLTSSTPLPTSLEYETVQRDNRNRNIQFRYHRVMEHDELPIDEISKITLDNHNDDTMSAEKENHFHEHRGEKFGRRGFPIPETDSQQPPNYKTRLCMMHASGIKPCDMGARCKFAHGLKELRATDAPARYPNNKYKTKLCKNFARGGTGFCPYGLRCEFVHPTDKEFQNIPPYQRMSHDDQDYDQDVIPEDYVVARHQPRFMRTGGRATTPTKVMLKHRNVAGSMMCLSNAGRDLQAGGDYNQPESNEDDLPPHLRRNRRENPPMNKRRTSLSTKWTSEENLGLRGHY

[15] = molecular target: DNA dC->dU-editing enzyme APOBEC-3A (Homo sapiens, UniProt P31941); assay: APOBEC3A DNA deaminase inhibitors, dose response, biochemical (AID 504722); assay type: functional
DNA dC->dU-editing enzyme APOBEC-3A, sequence (P31941 whole entry): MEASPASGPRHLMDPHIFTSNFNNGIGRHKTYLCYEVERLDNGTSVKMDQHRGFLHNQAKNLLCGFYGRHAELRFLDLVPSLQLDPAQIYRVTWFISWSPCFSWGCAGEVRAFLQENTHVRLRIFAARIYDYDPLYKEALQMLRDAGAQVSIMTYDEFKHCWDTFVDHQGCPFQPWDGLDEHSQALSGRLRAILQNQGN

[16] = molecular target: Heat shock 70 kDa protein 1A (Homo sapiens, UniProt P0DMV8); assay: Hsp70 inhibitors, SAR follow-up, biochemical, fluorescence polarization (AID 1072)
[17] = molecular target: Glyceraldehyde-3-phosphate dehydrogenase (Homo sapiens, UniProt P04406)
[18] = molecular target: Heat shock cognate 71 kDa protein (Homo sapiens, UniProt P11142); assay: In Vitro Hsc70 Dose Response Fluorescence Polarization Assay. [Related pubchem assays: 1072 ]
[19] = molecular target: Polyadenylate-binding protein 1 (Homo sapiens, UniProt P11940); assay: PABP poly(A) RNA binding inhibitors, primary screen, biochemical, fluorescence polarization, uHTS (AID 2014)
[20] = molecular target: Eukaryotic translation initiation factor 4H (Homo sapiens, UniProt Q15056); assay: human eIF4H binding inhibitors, primary screen, translation initiation inhibitor project, biochemical, uHTS, fluorescence polarization (AID 2012)
[21] = inhibitors of SNCA 5'UTR-driven reporter translation, confirmation, H4 neuroglioma cells, luminescence (AID 1988); assay type: functional, cell-based
[22] = inhibitors of firefly luciferase expression or activity, dose response, H4 neuroglioma cells, luminescence (AID 1990); assay type: functional, cell-based
cells = assay type: functional, cell-based
[23] = inhibitors of SNCA 5'UTR-driven translation, confirmation, luminescence, H4 neuroglioblastoma cells, dose confirmation (AID 2454); assay type: functional, cell-based;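 also: H4 neuroglioblastoma cells carrying an alpha-synuclein 5'UTR luciferase reporter; potency for inhibition of the luciferase signal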
[24] = luciferase reporter signal reduction – luminescence, H4-C neuroglioblastoma cells, dose response (AID 2458); assay type: functional, cell-based;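 also: H4 neuroglioblastoma cells stably carrying a luciferase reporter gene fusion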
[25] = molecular target: Peroxisome proliferator-activated receptor gamma/Nuclear receptor corepressor 2 (Homo sapiens, UniProt P37231+Q9Y618); assay type: functional
[26] = molecular target: T4, E3 ubiquitin-protein ligase XIAP (Homo sapiens, UniProt P98170); assay: Counter Screen using XIAP-Bir3 for Chemical Antagonists of Bir1/2 domains of IAP-family anti-apoptotic proteins. [Related pubchem assays (depositor defined):AID1018, AID1449, AID1514, AID1638, AID1749, AID1750, AID488957, AID488963]
T4 sequence (P98170 whole entry): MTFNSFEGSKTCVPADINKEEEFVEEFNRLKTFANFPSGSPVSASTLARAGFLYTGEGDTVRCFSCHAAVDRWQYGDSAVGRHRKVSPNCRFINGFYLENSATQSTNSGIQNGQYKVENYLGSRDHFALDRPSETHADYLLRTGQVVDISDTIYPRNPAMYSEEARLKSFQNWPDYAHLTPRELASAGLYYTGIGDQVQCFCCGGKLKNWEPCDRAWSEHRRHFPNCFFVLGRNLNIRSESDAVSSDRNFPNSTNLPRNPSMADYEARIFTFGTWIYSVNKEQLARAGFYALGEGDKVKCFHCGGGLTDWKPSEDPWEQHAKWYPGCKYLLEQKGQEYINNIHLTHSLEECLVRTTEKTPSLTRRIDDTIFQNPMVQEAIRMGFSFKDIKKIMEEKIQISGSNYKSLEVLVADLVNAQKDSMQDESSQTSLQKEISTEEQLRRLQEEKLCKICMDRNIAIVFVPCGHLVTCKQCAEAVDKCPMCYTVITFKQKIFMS

[27] = molecular target: Photoreceptor-specific nuclear receptor (Homo sapiens, UniProt Q9Y5X4); assay type: functional;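 also: potency for compounds that break the NR2E3 corepressor complex and count as activators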
Photoreceptor-specific nuclear receptor, sequence (Q9Y5X4 whole entry): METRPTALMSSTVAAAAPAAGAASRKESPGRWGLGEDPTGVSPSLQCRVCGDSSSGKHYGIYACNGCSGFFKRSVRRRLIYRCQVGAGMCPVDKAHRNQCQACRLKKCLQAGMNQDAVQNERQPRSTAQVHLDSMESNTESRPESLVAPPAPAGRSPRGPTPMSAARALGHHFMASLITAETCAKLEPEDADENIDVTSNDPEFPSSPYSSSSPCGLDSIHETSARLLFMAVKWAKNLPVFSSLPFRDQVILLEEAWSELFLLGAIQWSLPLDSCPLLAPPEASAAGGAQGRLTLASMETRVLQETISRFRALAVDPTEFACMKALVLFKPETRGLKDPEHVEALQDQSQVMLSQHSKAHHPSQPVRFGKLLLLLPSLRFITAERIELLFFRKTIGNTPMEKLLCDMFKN

[28] = molecular target: T4, E3 ubiquitin-protein ligase XIAP; assay: XIAP antagonists, biochemical, IAP family, fluorescence polarization (AID 1018); assay type: functional
Chaperone protein dnaK = Chaperone protein dnaK (Escherichia coli, UniProt C3TRK2); assay: DnaK beta-domain binding affinity, SAR follow-up, orthogonal assay for DnaK modulator project, biophysical, isothermal titration calorimetry, full-length DnaK (AID 1495)
Cytochrome P450 2D6 = Cytochrome P450 2D6 (Homo sapiens, UniProt P10635); assay: qHTS Assay for Inhibitors and Substrates of Cytochrome P450 2D6. [Related pubchem assays: 410 ]; assay type: ADME; details: read-out: Potency
Cytochrome P450 2D6, sequence (P10635 whole entry): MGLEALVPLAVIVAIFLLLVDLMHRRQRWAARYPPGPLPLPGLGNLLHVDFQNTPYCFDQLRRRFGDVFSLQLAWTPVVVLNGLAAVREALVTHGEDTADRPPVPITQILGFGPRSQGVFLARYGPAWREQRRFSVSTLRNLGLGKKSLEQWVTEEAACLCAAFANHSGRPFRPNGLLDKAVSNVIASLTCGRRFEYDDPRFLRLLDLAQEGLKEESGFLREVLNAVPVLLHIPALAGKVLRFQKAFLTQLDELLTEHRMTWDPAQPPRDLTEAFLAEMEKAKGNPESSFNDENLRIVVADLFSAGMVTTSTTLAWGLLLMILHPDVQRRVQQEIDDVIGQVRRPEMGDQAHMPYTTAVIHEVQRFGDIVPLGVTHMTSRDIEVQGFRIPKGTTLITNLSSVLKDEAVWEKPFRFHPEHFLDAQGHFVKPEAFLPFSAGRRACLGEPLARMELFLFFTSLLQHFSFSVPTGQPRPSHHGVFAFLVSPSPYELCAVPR

## COC(=O)c1ccccc1NC(=S)NC(=O)c1ccccc1C
[1]
  IC50: > 50 µM (not active)
[2]
  IC50: > 50 µM (not active)

## c1ccc(CN2CCC(Nc3nc(-c4ccccc4)nc4ccccc34)CC2)cc1
[3]
  EC50: 12.3 µM (active)
[4]
  AC50: 5.72 µM (active)
[5]
  EC50: 9.69 µM (active)
[6]
  CC50: 20.3 µM (active)
[7]
  EC50: 19.6 µM (active)

## CCC(C(=O)Nc1cccc(C(=O)O)c1C)c1ccccc1 (stereo not given)
[8]
  EC50: > 55.7 µM (not active)
[9]
  EC50: > 55.7 µM (not active)

## O=C(Nc1ccc2c(c1)OCO2)C(c1ccccc1)N1CCCCC1 (stereo not given)
Staphylococcus aureus
  IC50: 1.26 µM (active)

## O=C1C=CC(=O)C(C2=C3C(=O)N(CCc4ccccc4)CC(=O)N3CCC2)=C1
Beta-galactosidase
  IC50: > 66.6 µM (inactive)
[10]
  IC50: 4.75 µM (not active)
Perilipin-1/ABHD5
  IC50: 4.37 µM (active)
Hexokinase HKDC1
  IC50: 3.73 µM (active)
[11]
  IC50: 5.72 µM (active)
[12]
  IC50: 8.15 µM (active)
[13]
  EC50: 45.9 µM (active)
[14]
  EC50: 14.9 µM (inconclusive)
[15]
  IC50: > 100 µM (inactive)

## O=C(Nc1ccc2c(c1)C1C=CCC1C(C(=O)O)N2)c1ccc(Cl)cc1Cl (stereo not given)
[16]
  IC50: > 100 µM (not active)
[17]
  IC50: > 100 µM (not active)
[18]
  IC50: > 100 µM (not active)

## CC(C)C(OC(=O)c1ccco1)C(=O)NCc1ccco1 (stereo not given)
[19]
  IC50: > 100 µM (inactive)
[20]
  IC50: 58 µM (active)

## O=Cc1cn(Cc2ccc(F)cc2)c2ccccc12
[21]
  EC50: < 0.1 µM (active)
[22]
  EC50: 7.56 µM (active)
cells
  EC50: 1.05 µM (active)
[23]
  EC50: > 12 µM (inconclusive)
[24]
  EC50: 1.85 µM (active)

## Cc1cccc(-n2c(=S)[nH]c3c(oc4ccccc43)c2=O)c1
[25]
  IC50: 6.64 µM (active)
[26]
  IC50: > 100 µM (inactive)
[27]
  IC50: 5.11 µM (active)
[28]
  IC50: > 100 µM (not active)

## O=C(NCc1cc(Cl)cc(Cl)c1)c1cccs1
Chaperone protein dnaK
  Kd: 2.8 µM (active)

## CCN1CCC[C@@H]1CNC(=O)c1cc(S(N)(=O)=O)ccc1OC
Cytochrome P450 2D6
  AC50: 39.8 µM (inconclusive)
